Test system: MOLM-13 cells
Assay: MOLM-13 Cell Proliferation Assay (indicator of DHODH inhibition)
Assay type: cell-based
Settings: Homo sapiens, 72 Hours of culture, CellTiter-Glo, no uridine
Method in brief: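 Proliferation readout via CellTiter-Glo luminescence after 72 h compound treatment (37 °C, 5% CO2, 0.5% DMSO) of MOLM-13 cells seeded at 10^4 per well in RPMI 1640/10% FBS, used as a DHODH-inhibition indicator since these cells rely on de novo pyrimidine synthesis.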

Compound	IC50
Cc1ccc([C@H]2c3[nH]c4ccc(Cl)cc4c3CCN2c2nc(C)c(F)c(C)n2)cc1 [Compound 395, (1S)-6-chloro-2-(5-fluoro-4,6-dimethylpyrimidin-2-yl)-1-(4-methylphenyl)-2,3,4,9-tetrahydro-1H-pyrido[3,4-b]indole]	4.4 nM
N#Cc1nc(N2CCc3c([nH]c4ccc(Cl)cc34)[C@@H]2c2cnc(N3CCOCC3)nc2)ncc1F [Compound 396, 2-{(1S)-6-chloro-1-[2-(morpholin-4-yl)pyrimidin-5-yl]-1,3,4,9-tetrahydro-2H-pyrido[3,4-b]indol-2-yl}-5-fluoropyrimidine-4-carbonitrile]	2.4 nM
Cc1ccc([C@H]2c3[nH]c4ccc(Cl)cc4c3CCN2c2nc(C#N)cc(C#N)n2)cc1 [Compound 397, 2-[(1S)-6-chloro-1-(4-methylphenyl)-1,3,4,9-tetrahydro-2H-pyrido[3,4-b]indol-2-yl]pyrimidine-4,6-dicarbonitrile]	2.4 nM
Cc1ccc([C@H]2c3[nH]c4ccc(Cl)cc4c3CCN2c2ncnc(C#N)n2)cc1 [Compound 399, 4-[(1S)-6-chloro-1-(4-methylphenyl)-1,3,4,9-tetrahydro-2H-pyrido[3,4-b]indol-2-yl]-1,3,5-triazine-2-carbonitrile]	11.2 nM
N#Cc1nc(N2CCc3c([nH]c4ccc(Cl)cc34)[C@@H]2c2ccc(N3CCOCC3)nc2)ncc1F [Compound 400, 2-{(1S)-6-chloro-1-[6-(morpholin-4-yl)pyridin-3-yl]-1,3,4,9-tetrahydro-2H-pyrido[3,4-b]indol-2-yl}-5-fluoropyrimidine-4-carbonitrile]	2.3 nM
Cc1ccc(C2c3[nH]c4ccc(Cl)cc4c3CCN2c2ncc(F)cn2)c(F)c1F (stereo not shown) [Compound 401, 6-chloro-1-(2,3-difluoro-4-methylphenyl)-2-(5-fluoropyrimidin-2-yl)-2,3,4,9-tetrahydro-1H-pyrido[3,4-b]indole]	3.2 nM
Cc1ccc([C@H]2c3[nH]c4ccc(Cl)cc4c3CCN2c2nc(C)nc(C)n2)cc1 [Compound 402, (1S)-6-chloro-2-(4,6-dimethyl-1,3,5-triazin-2-yl)-1-(4-methylphenyl)-2,3,4,9-tetrahydro-1H-pyrido[3,4-b]indole]	4.7 nM
Cc1ccc(C2c3[nH]c4ccc(Cl)cc4c3CCN2c2nncc(C(F)(F)F)n2)c(F)c1F (stereo not shown) [Compound 403, 6-chloro-1-(2,3-difluoro-4-methylphenyl)-2-[5-(trifluoromethyl)-1,2,4-triazin-3-yl]-2,3,4,9-tetrahydro-1H-pyrido[3,4-b]indole]	0.7 nM
FC(F)(F)c1nc(N2CCc3c([nH]c4ccc(Cl)cc34)C2c2ccc(N3CCOCC3)nc2)nc(C(F)(F)F)n1 (stereo not shown) [Compound 404, 2-[4,6-bis(trifluoromethyl)-1,3,5-triazin-2-yl]-6-chloro-1-[6-(morpholin-4-yl)pyridin-3-yl]-2,3,4,9-tetrahydro-1H-pyrido[3,4-b]indole]	0.4 nM
Cc1ccc([C@H]2c3[nH]c4ccc(Cl)cc4c3CCN2c2nc(C)nc(C#N)n2)cc1 [Compound 411, 4-[(1S)-6-chloro-1-(4-methylphenyl)-1,3,4,9-tetrahydro-2H-pyrido[3,4-b]indol-2-yl]-6-methyl-1,3,5-triazine-2-carbonitrile]	3.7 nM
Cc1ccc([C@H]2c3[nH]c4ccc(Cl)cc4c3CCN2c2nc(C)c(F)c(C)n2)c(F)c1F [Compound 412, (1S)-6-chloro-1-(2,3-difluoro-4-methylphenyl)-2-(5-fluoro-4,6-dimethylpyrimidin-2-yl)-2,3,4,9-tetrahydro-1H-pyrido[3,4-b]indole]	1 nM
Cc1ccc([C@H]2c3[nH]c4ccc(Cl)cc4c3CCN2c2nc(C)c(F)c(C#N)n2)c(F)c1F [Compound 413, 2-[(1S)-6-chloro-1-(2,3-difluoro-4-methylphenyl)-1,3,4,9-tetrahydro-2H-pyrido[3,4-b]indol-2-yl]-5-fluoro-6-methylpyrimidine-4-carbonitrile]	0.8 nM
N#Cc1ncnc(N2CCc3c([nH]c4ccc(Cl)cc34)[C@@H]2c2cnc(N3CCOCC3)nc2)n1 [Compound 414, 4-{(1S)-6-chloro-1-[2-(morpholin-4-yl)pyrimidin-5-yl]-1,3,4,9-tetrahydro-2H-pyrido[3,4-b]indol-2-yl}-1,3,5-triazine-2-carbonitrile]	38 nM
Cc1nc(C#N)nc(N2CCc3c([nH]c4ccc(Cl)cc34)[C@@H]2c2cnc(N3CCOCC3)nc2)n1 [Compound 415, 4-{(1S)-6-chloro-1-[2-(morpholin-4-yl)pyrimidin-5-yl]-1,3,4,9-tetrahydro-2H-pyrido[3,4-b]indol-2-yl}-6-methyl-1,3,5-triazine-2-carbonitrile]	50.6 nM
Cc1ccc([C@H]2c3[nH]c4ccc(Cl)cc4c3CCN2c2nc(C#N)cc(C(F)(F)F)n2)c(F)c1F [Compound 416, 2-[(1S)-6-chloro-1-(2,3-difluoro-4-methylphenyl)-1,3,4,9-tetrahydro-2H-pyrido[3,4-b]indol-2-yl]-6-(trifluoromethyl)pyrimidine-4-carbonitrile]	2.7 nM
Cc1ccc([C@H]2c3[nH]c4ccc(Cl)cc4c3CCN2c2nc(C)c(F)c(C#N)n2)cc1 [Compound 417, 2-[(1S)-6-chloro-1-(4-methylphenyl)-1,3,4,9-tetrahydro-2H-pyrido[3,4-b]indol-2-yl]-5-fluoro-6-methylpyrimidine-4-carbonitrile]	1.9 nM
Cc1nc(N2CCc3c([nH]c4ccc(Cl)cc34)[C@@H]2c2cnc(N3CCOCC3)nc2)nc(C#N)c1F [Compound 421, 2-{(1S)-6-chloro-1-[2-(morpholin-4-yl)pyrimidin-5-yl]-1,3,4,9-tetrahydro-2H-pyrido[3,4-b]indol-2-yl}-5-fluoro-6-methylpyrimidine-4-carbonitrile]	1.7 nM
Fc1ccc(C2c3[nH]c4ccc(Cl)cc4c3CCN2c2nccc(C(F)(F)F)n2)cc1 (stereo not shown) [Compound 422, 6-chloro-1-(4-fluorophenyl)-2-[4-(trifluoromethyl)pyrimidin-2-yl]-2,3,4,9-tetrahydro-1H-pyrido[3,4-b]indole]	7.1 nM
Fc1ccc(C2c3[nH]c4ccc(Cl)cc4c3CCN2c2nccc(C(F)(F)F)n2)c(F)c1 (stereo not shown) [Compound 423, 6-chloro-1-(2,4-difluorophenyl)-2-[4-(trifluoromethyl)pyrimidin-2-yl]-2,3,4,9-tetrahydro-1H-pyrido[3,4-b]indole]	6.1 nM
Cc1nc(N2CCc3c([nH]c4ccc(Cl)cc34)[C@@H]2c2ccc(N3CCOCC3)nc2)nc(C#N)c1F [Compound 424, 2-{(1S)-6-chloro-1-[6-(morpholin-4-yl)pyridin-3-yl]-1,3,4,9-tetrahydro-2H-pyrido[3,4-b]indol-2-yl}-5-fluoro-6-methylpyrimidine-4-carbonitrile]	2 nM
Cc1ccc([C@H]2c3[nH]c4ccc(Cl)cc4c3CCN2c2nc(C#N)cc(C(F)(F)F)n2)cc1 [Compound 425, 2-[(1S)-6-chloro-1-(4-methylphenyl)-1,3,4,9-tetrahydro-2H-pyrido[3,4-b]indol-2-yl]-6-(trifluoromethyl)pyrimidine-4-carbonitrile]	1.2 nM
Cc1ccc([C@H]2c3[nH]c4ccc(Cl)cc4c3CCN2c2nc(N)nc(C(F)(F)F)n2)cc1 [Compound 426, 4-[(1S)-6-chloro-1-(4-methylphenyl)-1,3,4,9-tetrahydro-2H-pyrido[3,4-b]indol-2-yl]-6-(trifluoromethyl)-1,3,5-triazin-2-amine]	65 nM

Source: patent US20250186437A1, “CARBOLINE COMPOUNDS AND USE THEREOF” (PTC Therapeutics, Inc., priority 2021, published 2025)
